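Five concentrations, 48 hours, 96-well plates. TGI: concentration producing complete growth inhibition.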
These compounds were tested on ACHN renal (assay: DTP human tumour cell line panel, 48 h).

Row | Structure (SMILES) | TGI
1 | O=C1CCC(c2ccc(Cl)cc2)=NN1c1nsc2ccccc12 | > 100 µM
2 | N#CC(NC12CC3CC(CC(C3)C1)C2)c1ccccc1C(F)(F)F (stereo not given) | > 100 µM
3 | O=C1C=CC[C@H]2O[C@@H](COC(=O)Cc3ccccc3)C[C@H]2O1 | > 100 µM

These compounds were tested on CCRF-CEM leukemia (assay: DTP human tumour cell line panel, 48 h).

Row | Structure (SMILES) | TGI
4 | O=C1CCC(c2ccc(Cl)cc2)=NN1c1nsc2ccccc12 | 80 µM
5 | N#CC(NC12CC3CC(CC(C3)C1)C2)c1ccccc1C(F)(F)F (stereo not given) | > 100 µM
6 | O=C1C=CC[C@H]2O[C@@H](COC(=O)Cc3ccccc3)C[C@H]2O1 | > 100 µM

These compounds were tested on HOP-62 NSCLC (assay: DTP human tumour cell line panel, 48 h).

Row | Structure (SMILES) | TGI
7 | O=C1CCC(c2ccc(Cl)cc2)=NN1c1nsc2ccccc12 | > 100 µM
8 | N#CC(NC12CC3CC(CC(C3)C1)C2)c1ccccc1C(F)(F)F (stereo not given) | > 100 µM
9 | O=C1C=CC[C@H]2O[C@@H](COC(=O)Cc3ccccc3)C[C@H]2O1 | > 100 µM

These compounds were tested on HT29 colon (assay: DTP human tumour cell line panel, 48 h).

Row | Structure (SMILES) | TGI
10 | O=C1CCC(c2ccc(Cl)cc2)=NN1c1nsc2ccccc12 | > 100 µM
11 | N#CC(NC12CC3CC(CC(C3)C1)C2)c1ccccc1C(F)(F)F (stereo not given) | > 100 µM
12 | O=C1C=CC[C@H]2O[C@@H](COC(=O)Cc3ccccc3)C[C@H]2O1 | 71.7 µM

Each compound was assayed on KM12 colon (assay: DTP human tumour cell line panel, 48 h).

Row | Structure (SMILES) | TGI
13 | O=C1CCC(c2ccc(Cl)cc2)=NN1c1nsc2ccccc12 | > 100 µM
14 | N#CC(NC12CC3CC(CC(C3)C1)C2)c1ccccc1C(F)(F)F (stereo not given) | > 100 µM
15 | O=C1C=CC[C@H]2O[C@@H](COC(=O)Cc3ccccc3)C[C@H]2O1 | 42.4 µM

The compounds below were run on MOLT-4 leukemia (assay: DTP human tumour cell line panel, 48 h).

Row | Structure (SMILES) | TGI
16 | O=C1CCC(c2ccc(Cl)cc2)=NN1c1nsc2ccccc12 | 53.2 µM
17 | N#CC(NC12CC3CC(CC(C3)C1)C2)c1ccccc1C(F)(F)F (stereo not given) | > 100 µM
18 | O=C1C=CC[C@H]2O[C@@H](COC(=O)Cc3ccccc3)C[C@H]2O1 | > 100 µM

What follows are compounds tested on NCI-H23 lung (assay: DTP human tumour cell line panel, 48 h).

Row | Structure (SMILES) | TGI
19 | O=C1CCC(c2ccc(Cl)cc2)=NN1c1nsc2ccccc12 | > 100 µM
20 | N#CC(NC12CC3CC(CC(C3)C1)C2)c1ccccc1C(F)(F)F (stereo not given) | > 100 µM
21 | O=C1C=CC[C@H]2O[C@@H](COC(=O)Cc3ccccc3)C[C@H]2O1 | 66.6 µM

These compounds were tested on NCI-H460 lung (assay: DTP human tumour cell line panel, 48 h).

Row | Structure (SMILES) | TGI
22 | O=C1CCC(c2ccc(Cl)cc2)=NN1c1nsc2ccccc12 | > 100 µM
23 | N#CC(NC12CC3CC(CC(C3)C1)C2)c1ccccc1C(F)(F)F (stereo not given) | > 100 µM
24 | O=C1C=CC[C@H]2O[C@@H](COC(=O)Cc3ccccc3)C[C@H]2O1 | > 100 µM

These compounds were tested on OVCAR-3 ovarian (assay: DTP human tumour cell line panel, 48 h).

Row | Structure (SMILES) | TGI
25 | O=C1CCC(c2ccc(Cl)cc2)=NN1c1nsc2ccccc12 | 44.7 µM
26 | N#CC(NC12CC3CC(CC(C3)C1)C2)c1ccccc1C(F)(F)F (stereo not given) | > 100 µM
27 | O=C1C=CC[C@H]2O[C@@H](COC(=O)Cc3ccccc3)C[C@H]2O1 | > 100 µM

These compounds were tested on OVCAR-5 ovarian (assay: DTP human tumour cell line panel, 48 h).

Row | Structure (SMILES) | TGI
28 | O=C1CCC(c2ccc(Cl)cc2)=NN1c1nsc2ccccc12 | > 100 µM
29 | N#CC(NC12CC3CC(CC(C3)C1)C2)c1ccccc1C(F)(F)F (stereo not given) | > 100 µM
30 | O=C1C=CC[C@H]2O[C@@H](COC(=O)Cc3ccccc3)C[C@H]2O1 | > 100 µM

What follows are compounds tested on OVCAR-8 ovarian (assay: DTP human tumour cell line panel, 48 h).

Row | Structure (SMILES) | TGI
31 | O=C1CCC(c2ccc(Cl)cc2)=NN1c1nsc2ccccc12 | > 100 µM
32 | N#CC(NC12CC3CC(CC(C3)C1)C2)c1ccccc1C(F)(F)F (stereo not given) | > 100 µM
33 | O=C1C=CC[C@H]2O[C@@H](COC(=O)Cc3ccccc3)C[C@H]2O1 | 77.9 µM

These compounds were tested on RPMI-8226 leukemia (assay: DTP human tumour cell line panel, 48 h).

Row | Structure (SMILES) | TGI
34 | O=C1CCC(c2ccc(Cl)cc2)=NN1c1nsc2ccccc12 | 42.6 µM
35 | N#CC(NC12CC3CC(CC(C3)C1)C2)c1ccccc1C(F)(F)F (stereo not given) | > 100 µM
36 | O=C1C=CC[C@H]2O[C@@H](COC(=O)Cc3ccccc3)C[C@H]2O1 | > 100 µM

The compounds below were run on SF-268 CNS (assay: DTP human tumour cell line panel, 48 h).

Row | Structure (SMILES) | TGI
37 | O=C1CCC(c2ccc(Cl)cc2)=NN1c1nsc2ccccc12 | > 100 µM
38 | N#CC(NC12CC3CC(CC(C3)C1)C2)c1ccccc1C(F)(F)F (stereo not given) | > 100 µM
39 | O=C1C=CC[C@H]2O[C@@H](COC(=O)Cc3ccccc3)C[C@H]2O1 | 56.2 µM

Each compound was assayed on SF-539 CNS (assay: DTP human tumour cell line panel, 48 h).

Row | Structure (SMILES) | TGI
40 | O=C1CCC(c2ccc(Cl)cc2)=NN1c1nsc2ccccc12 | > 100 µM
41 | N#CC(NC12CC3CC(CC(C3)C1)C2)c1ccccc1C(F)(F)F (stereo not given) | > 100 µM
42 | O=C1C=CC[C@H]2O[C@@H](COC(=O)Cc3ccccc3)C[C@H]2O1 | > 100 µM

The compounds below were run on SK-MEL-28 melanoma (assay: DTP human tumour cell line panel, 48 h).

Row | Structure (SMILES) | TGI
43 | O=C1CCC(c2ccc(Cl)cc2)=NN1c1nsc2ccccc12 | > 100 µM
44 | N#CC(NC12CC3CC(CC(C3)C1)C2)c1ccccc1C(F)(F)F (stereo not given) | > 100 µM
45 | O=C1C=CC[C@H]2O[C@@H](COC(=O)Cc3ccccc3)C[C@H]2O1 | 74.4 µM

The compounds below were run on SN12C renal (assay: DTP human tumour cell line panel, 48 h).

Row | Structure (SMILES) | TGI
46 | O=C1CCC(c2ccc(Cl)cc2)=NN1c1nsc2ccccc12 | 67.3 µM
47 | N#CC(NC12CC3CC(CC(C3)C1)C2)c1ccccc1C(F)(F)F (stereo not given) | > 100 µM
48 | O=C1C=CC[C@H]2O[C@@H](COC(=O)Cc3ccccc3)C[C@H]2O1 | > 100 µM

What follows are compounds tested on SNB-19 CNS (assay: DTP human tumour cell line panel, 48 h).

Row | Structure (SMILES) | TGI
49 | O=C1CCC(c2ccc(Cl)cc2)=NN1c1nsc2ccccc12 | > 100 µM
50 | N#CC(NC12CC3CC(CC(C3)C1)C2)c1ccccc1C(F)(F)F (stereo not given) | > 100 µM
51 | O=C1C=CC[C@H]2O[C@@H](COC(=O)Cc3ccccc3)C[C@H]2O1 | > 100 µM

These compounds were tested on SW-620 colon (assay: DTP human tumour cell line panel, 48 h).

Row | Structure (SMILES) | TGI
52 | O=C1CCC(c2ccc(Cl)cc2)=NN1c1nsc2ccccc12 | > 100 µM
53 | N#CC(NC12CC3CC(CC(C3)C1)C2)c1ccccc1C(F)(F)F (stereo not given) | > 100 µM
54 | O=C1C=CC[C@H]2O[C@@H](COC(=O)Cc3ccccc3)C[C@H]2O1 | > 100 µM

What follows are compounds tested on TK-10 renal (assay: DTP human tumour cell line panel, 48 h).

Row | Structure (SMILES) | TGI
55 | O=C1CCC(c2ccc(Cl)cc2)=NN1c1nsc2ccccc12 | > 100 µM
56 | N#CC(NC12CC3CC(CC(C3)C1)C2)c1ccccc1C(F)(F)F (stereo not given) | > 100 µM
57 | O=C1C=CC[C@H]2O[C@@H](COC(=O)Cc3ccccc3)C[C@H]2O1 | 65.5 µM

Each compound was assayed on UO-31 renal (assay: DTP human tumour cell line panel, 48 h).

Row | Structure (SMILES) | TGI
58 | O=C1CCC(c2ccc(Cl)cc2)=NN1c1nsc2ccccc12 | 59.1 µM
59 | N#CC(NC12CC3CC(CC(C3)C1)C2)c1ccccc1C(F)(F)F (stereo not given) | > 100 µM
60 | O=C1C=CC[C@H]2O[C@@H](COC(=O)Cc3ccccc3)C[C@H]2O1 | > 100 µM
